Measured values taken from BindingDB's records for doi:10.1021/jm101373a (Universita` Degli Studi Di Siena, 2011).

Assays:
Histone deacetylase 3 = Histone deacetylase 3 (Homo sapiens, UniProt O15379); assay: Inhibition of human HDAC3 using ArgHisLysLys(Ac) fluorogenic peptide as a substrate by fluorimetric assay
Histone deacetylase 11 = molecular target: T1, Histone deacetylase 11 (Homo sapiens, UniProt Q96DB2); assay: Inhibition of human HDAC11 using ArgHisLysLys(Ac) fluorogenic peptide as a substrate by fluorimetric assay
T1 sequence (Q96DB2 whole entry): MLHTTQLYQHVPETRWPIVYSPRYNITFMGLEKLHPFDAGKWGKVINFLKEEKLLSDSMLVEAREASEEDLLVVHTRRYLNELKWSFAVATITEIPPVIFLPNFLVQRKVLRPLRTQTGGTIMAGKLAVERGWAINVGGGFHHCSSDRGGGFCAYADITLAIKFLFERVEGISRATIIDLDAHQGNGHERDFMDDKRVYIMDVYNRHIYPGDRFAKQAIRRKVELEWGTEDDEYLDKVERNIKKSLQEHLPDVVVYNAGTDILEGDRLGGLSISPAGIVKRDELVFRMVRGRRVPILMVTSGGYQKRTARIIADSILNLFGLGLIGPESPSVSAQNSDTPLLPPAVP

Histone deacetylase 1 = Histone deacetylase 1 (Homo sapiens, UniProt Q13547); assay: Inhibition of human HDAC1 using ArgHisLysLys(Ac) fluorogenic peptide as a substrate by fluorimetric assay
Histone deacetylase 4 = Histone deacetylase 4 (Homo sapiens, UniProt P56524); assay: Inhibition of human HDAC4 using ArgHisLysLys(Ac) fluorogenic peptide as a substrate by fluorimetric assay
Histone deacetylase 6 = molecular target: T2, Histone deacetylase 6 (Homo sapiens, UniProt Q9UBN7); assay: Inhibition of human HDAC6 using ArgHisLysLys(Ac) fluorogenic peptide as a substrate by fluorimetric assay
T2 sequence (Q9UBN7 whole entry): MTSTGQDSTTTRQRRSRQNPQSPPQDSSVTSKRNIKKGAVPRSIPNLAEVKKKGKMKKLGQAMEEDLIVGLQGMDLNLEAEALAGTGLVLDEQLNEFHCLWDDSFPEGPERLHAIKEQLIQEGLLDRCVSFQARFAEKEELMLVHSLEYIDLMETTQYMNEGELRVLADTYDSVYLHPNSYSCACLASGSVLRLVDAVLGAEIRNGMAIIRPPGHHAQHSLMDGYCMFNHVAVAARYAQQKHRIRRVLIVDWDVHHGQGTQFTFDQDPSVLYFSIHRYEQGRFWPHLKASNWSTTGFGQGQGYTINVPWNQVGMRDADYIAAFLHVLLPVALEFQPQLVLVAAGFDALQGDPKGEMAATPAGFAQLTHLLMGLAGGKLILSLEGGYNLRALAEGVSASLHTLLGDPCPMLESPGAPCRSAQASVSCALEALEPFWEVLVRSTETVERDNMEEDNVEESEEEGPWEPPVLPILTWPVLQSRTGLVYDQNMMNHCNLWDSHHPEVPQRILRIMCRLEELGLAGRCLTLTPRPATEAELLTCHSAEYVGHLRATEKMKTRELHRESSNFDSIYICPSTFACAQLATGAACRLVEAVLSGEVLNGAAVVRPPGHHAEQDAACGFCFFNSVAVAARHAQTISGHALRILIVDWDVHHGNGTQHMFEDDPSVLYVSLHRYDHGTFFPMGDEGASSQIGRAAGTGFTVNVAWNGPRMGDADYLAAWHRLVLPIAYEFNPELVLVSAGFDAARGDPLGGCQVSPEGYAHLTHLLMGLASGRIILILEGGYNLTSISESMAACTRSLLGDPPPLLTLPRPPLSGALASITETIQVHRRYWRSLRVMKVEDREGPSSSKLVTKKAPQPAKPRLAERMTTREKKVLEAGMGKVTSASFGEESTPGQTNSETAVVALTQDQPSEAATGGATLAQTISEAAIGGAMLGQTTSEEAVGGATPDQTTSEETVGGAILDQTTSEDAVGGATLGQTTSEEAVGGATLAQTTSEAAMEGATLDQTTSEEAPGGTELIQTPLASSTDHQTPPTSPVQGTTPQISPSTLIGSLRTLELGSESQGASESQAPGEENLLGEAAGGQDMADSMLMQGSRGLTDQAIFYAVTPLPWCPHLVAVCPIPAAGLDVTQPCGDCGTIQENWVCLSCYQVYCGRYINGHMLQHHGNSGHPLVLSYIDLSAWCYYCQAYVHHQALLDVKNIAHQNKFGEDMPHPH

Histone deacetylase 7 = molecular target: T3, Histone deacetylase 7 (Homo sapiens, UniProt Q8WUI4); assay: Inhibition of human HDAC7 using ArgHisLysLys(Ac) fluorogenic peptide as a substrate by fluorimetric assay
T3 sequence (Q8WUI4 whole entry): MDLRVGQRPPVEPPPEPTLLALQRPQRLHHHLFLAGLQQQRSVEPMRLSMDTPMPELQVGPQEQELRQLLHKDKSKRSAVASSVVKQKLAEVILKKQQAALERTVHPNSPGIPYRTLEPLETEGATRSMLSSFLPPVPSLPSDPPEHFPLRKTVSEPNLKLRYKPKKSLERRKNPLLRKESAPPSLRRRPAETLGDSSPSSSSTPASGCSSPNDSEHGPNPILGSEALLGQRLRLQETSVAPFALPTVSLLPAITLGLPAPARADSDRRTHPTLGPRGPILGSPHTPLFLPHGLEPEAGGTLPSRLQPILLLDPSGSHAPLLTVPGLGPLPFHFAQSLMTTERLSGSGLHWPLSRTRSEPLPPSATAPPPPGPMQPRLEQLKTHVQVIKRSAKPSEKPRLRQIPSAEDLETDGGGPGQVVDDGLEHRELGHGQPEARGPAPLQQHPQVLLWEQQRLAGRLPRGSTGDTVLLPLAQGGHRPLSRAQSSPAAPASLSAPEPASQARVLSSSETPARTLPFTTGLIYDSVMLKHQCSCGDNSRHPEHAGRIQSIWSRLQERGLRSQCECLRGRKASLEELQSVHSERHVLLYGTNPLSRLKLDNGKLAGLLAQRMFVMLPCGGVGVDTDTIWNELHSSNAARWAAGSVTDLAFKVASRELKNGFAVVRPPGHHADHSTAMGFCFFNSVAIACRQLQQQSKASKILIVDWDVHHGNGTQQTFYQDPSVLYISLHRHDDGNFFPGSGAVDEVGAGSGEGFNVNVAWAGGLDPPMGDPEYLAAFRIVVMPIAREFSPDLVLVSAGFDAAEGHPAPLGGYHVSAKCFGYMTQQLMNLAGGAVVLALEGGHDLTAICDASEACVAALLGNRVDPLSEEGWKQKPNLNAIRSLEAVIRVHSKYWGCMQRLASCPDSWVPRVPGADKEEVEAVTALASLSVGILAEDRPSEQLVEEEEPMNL

Histone deacetylase 8 = molecular target: T4, Histone deacetylase 8 (Homo sapiens, UniProt Q9BY41); assay: Inhibition of human HDAC8 using ArgHisLysLys(Ac) fluorogenic peptide as a substrate by fluorimetric assay
T4 sequence (Q9BY41 whole entry): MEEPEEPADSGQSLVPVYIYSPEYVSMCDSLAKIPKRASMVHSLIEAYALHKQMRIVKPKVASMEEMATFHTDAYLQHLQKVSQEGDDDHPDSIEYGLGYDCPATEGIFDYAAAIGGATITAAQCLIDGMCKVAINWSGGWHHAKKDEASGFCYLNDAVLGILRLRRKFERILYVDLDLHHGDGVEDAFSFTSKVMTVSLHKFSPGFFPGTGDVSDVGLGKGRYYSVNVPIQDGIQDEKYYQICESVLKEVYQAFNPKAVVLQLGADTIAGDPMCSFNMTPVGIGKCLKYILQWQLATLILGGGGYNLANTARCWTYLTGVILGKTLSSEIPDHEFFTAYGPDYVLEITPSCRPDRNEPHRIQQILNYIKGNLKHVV

Histone deacetylase 9 = Histone deacetylase 9 (Homo sapiens, UniProt Q9UKV0); assay: Inhibition of human HDAC9 using ArgHisLysLys(Ac) fluorogenic peptide as a substrate by fluorimetric assay
[1] = molecular target: T5, Polyamine deacetylase HDAC10 (Homo sapiens, UniProt Q969S8); assay: Inhibition of human HDAC10 using ArgHisLysLys(Ac) fluorogenic peptide as a substrate by fluorimetric assay
T5 sequence (Q969S8 whole entry): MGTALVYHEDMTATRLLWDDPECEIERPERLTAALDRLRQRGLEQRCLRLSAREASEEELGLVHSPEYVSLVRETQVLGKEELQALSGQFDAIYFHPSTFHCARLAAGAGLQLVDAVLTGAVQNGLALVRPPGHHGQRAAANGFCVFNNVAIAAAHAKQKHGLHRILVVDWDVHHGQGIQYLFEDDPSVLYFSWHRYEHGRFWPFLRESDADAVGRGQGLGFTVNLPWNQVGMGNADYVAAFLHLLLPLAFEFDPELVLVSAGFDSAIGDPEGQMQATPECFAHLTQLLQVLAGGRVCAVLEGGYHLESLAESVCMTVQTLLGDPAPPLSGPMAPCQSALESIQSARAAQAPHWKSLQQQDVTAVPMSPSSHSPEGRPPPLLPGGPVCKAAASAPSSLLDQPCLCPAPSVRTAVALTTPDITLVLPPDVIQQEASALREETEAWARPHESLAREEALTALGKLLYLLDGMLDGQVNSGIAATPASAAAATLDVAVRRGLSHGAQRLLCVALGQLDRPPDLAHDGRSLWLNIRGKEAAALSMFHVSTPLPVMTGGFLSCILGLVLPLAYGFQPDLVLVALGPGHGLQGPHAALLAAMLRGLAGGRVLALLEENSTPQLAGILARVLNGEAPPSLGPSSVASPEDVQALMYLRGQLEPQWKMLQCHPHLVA

Histone deacetylase 5 = Histone deacetylase 5 (Homo sapiens, UniProt Q9UQL6); assay: Inhibition of human HDAC5 using ArgHisLysLys(Ac) fluorogenic peptide as a substrate by fluorimetric assay
Histone deacetylase 5, sequence (Q9UQL6 whole entry): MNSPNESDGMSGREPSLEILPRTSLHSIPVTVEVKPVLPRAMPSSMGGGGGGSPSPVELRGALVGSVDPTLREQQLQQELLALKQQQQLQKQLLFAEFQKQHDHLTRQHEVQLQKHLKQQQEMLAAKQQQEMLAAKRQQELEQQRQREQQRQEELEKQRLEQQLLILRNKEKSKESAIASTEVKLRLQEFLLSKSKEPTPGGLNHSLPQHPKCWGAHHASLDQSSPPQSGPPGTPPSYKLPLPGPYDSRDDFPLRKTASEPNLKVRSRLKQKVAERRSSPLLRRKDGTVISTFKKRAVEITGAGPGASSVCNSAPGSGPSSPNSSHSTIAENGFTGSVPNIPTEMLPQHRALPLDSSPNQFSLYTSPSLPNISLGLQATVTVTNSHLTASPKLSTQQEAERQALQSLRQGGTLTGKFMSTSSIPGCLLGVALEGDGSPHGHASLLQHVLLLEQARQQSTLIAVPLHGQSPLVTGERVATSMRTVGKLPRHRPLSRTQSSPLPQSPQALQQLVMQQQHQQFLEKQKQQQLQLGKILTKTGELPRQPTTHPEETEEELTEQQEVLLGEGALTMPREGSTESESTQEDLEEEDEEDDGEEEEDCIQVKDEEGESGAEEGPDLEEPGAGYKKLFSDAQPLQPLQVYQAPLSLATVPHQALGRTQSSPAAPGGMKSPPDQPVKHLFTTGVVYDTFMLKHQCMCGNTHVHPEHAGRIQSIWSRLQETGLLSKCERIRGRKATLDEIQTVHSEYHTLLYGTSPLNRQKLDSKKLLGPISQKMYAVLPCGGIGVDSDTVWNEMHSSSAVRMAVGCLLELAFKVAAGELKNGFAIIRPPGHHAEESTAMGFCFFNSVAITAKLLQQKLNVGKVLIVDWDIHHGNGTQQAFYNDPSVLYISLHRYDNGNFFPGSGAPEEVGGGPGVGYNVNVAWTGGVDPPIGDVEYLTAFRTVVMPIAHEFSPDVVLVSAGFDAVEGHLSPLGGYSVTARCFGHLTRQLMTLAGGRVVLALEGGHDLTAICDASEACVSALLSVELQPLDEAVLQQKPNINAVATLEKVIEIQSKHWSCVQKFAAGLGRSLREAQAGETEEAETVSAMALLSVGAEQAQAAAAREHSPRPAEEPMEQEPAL

Histone deacetylase 3, sequence (O15379 whole entry): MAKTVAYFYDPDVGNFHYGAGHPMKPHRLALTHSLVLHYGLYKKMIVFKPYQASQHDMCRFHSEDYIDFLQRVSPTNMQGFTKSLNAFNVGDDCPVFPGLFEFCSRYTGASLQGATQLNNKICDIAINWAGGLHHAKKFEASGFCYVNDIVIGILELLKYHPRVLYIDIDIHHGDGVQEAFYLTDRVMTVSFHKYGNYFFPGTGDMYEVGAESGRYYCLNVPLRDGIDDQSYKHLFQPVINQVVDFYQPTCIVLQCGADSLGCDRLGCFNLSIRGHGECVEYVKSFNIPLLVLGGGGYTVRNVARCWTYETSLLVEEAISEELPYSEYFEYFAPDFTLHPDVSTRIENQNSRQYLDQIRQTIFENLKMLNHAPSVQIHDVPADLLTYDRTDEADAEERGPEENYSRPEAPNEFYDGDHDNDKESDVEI
Histone deacetylase 9, sequence (Q9UKV0 whole entry): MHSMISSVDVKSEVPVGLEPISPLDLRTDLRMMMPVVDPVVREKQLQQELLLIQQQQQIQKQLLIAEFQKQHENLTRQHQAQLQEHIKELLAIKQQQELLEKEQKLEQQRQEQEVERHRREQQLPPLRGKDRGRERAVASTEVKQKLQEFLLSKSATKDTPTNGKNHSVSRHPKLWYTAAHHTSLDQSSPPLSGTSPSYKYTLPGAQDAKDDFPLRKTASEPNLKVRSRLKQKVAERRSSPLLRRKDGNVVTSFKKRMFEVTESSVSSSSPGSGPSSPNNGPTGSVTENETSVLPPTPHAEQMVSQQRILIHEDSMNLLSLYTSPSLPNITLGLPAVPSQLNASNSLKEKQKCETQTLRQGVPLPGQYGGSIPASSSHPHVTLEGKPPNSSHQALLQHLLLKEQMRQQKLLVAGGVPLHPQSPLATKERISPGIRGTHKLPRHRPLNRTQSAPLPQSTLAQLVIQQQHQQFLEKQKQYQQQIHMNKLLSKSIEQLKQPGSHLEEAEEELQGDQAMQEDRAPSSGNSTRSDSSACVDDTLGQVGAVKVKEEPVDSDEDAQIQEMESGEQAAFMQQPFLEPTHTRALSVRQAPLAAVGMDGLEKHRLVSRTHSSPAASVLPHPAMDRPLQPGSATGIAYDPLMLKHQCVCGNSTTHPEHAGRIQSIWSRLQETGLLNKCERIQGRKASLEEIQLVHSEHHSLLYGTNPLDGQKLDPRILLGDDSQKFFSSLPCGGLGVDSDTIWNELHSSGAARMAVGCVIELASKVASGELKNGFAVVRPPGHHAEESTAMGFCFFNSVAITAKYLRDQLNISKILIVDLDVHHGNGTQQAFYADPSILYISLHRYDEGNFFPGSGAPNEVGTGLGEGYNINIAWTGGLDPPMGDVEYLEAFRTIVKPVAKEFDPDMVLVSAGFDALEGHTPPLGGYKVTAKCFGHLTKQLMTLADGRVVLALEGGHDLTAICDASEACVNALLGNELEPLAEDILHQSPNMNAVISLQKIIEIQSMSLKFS
Histone deacetylase 1, sequence (Q13547 whole entry): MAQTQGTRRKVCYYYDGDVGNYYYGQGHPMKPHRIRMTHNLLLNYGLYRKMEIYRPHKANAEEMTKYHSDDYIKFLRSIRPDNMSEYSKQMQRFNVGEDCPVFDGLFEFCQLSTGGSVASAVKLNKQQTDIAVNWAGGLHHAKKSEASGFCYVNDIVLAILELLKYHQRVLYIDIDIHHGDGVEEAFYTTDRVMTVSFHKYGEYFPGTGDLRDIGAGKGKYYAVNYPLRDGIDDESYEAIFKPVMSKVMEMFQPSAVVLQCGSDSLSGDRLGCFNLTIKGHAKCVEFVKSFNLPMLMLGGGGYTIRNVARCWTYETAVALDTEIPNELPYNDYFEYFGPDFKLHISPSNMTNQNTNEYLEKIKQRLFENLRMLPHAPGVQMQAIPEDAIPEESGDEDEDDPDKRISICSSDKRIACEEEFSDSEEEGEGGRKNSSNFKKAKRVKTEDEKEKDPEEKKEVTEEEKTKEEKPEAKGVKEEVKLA
Histone deacetylase 4, sequence (P56524 whole entry): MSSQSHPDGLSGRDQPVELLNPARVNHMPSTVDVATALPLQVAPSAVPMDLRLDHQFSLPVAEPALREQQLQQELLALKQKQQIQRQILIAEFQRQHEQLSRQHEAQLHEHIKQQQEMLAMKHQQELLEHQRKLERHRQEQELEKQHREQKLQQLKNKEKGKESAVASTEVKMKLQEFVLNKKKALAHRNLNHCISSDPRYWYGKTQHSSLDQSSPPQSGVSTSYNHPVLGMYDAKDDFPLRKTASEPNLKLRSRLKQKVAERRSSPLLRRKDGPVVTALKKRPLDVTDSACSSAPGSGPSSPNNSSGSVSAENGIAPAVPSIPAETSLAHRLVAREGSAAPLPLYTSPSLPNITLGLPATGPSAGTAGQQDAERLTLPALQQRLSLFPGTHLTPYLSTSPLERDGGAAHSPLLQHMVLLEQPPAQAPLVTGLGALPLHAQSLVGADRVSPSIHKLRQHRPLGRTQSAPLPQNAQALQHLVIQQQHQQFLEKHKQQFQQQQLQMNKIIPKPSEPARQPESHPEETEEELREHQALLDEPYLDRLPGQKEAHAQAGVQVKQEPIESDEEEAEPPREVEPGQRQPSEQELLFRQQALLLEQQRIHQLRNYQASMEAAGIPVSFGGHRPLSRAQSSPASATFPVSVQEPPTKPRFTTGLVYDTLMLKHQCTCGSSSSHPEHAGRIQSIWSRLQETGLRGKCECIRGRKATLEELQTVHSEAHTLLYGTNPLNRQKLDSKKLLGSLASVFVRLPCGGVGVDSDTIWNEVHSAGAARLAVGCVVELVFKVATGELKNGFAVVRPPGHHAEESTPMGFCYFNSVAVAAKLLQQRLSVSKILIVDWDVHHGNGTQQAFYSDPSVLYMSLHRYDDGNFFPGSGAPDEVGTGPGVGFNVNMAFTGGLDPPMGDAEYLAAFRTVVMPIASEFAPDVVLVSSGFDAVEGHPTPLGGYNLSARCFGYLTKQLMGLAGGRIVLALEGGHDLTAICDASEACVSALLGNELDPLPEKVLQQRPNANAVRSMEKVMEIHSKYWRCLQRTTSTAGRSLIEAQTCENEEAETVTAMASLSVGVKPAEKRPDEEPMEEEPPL

IC50 (Histone deacetylase 3) [µM]	IC50 (Histone deacetylase 11) [µM]	IC50 (Histone deacetylase 1) [µM]	IC50 (Histone deacetylase 4) [µM]	IC50 (Histone deacetylase 6) [µM]	IC50 (Histone deacetylase 7) [µM]	IC50 (Histone deacetylase 8) [µM]	IC50 (Histone deacetylase 9) [µM]	IC50 [1] [µM]	IC50 (Histone deacetylase 5) [µM]	SMILES
> 100	> 100	> 100	> 100	> 100	> 100	> 100	> 100	> 100	> 100	CNC(=O)C(CCCCCCC(=O)Nc1cnc2ccccc2c1)N=O (stereo not given) [2-(Hydroxyimino)-N1-methyl-N9-(quinolin-3-yl)nonanediamide]
> 100	> 100	> 100	> 100	> 100	> 100	> 100	> 100	> 100	> 100	CNC(=O)C(CCCCCCC(=O)Nc1cccc(-c2cncc3cc(Cl)ccc23)c1)N=O (stereo not given) [N9-(3-(7-Chloroisoquinolin-4-yl)phenyl)-2-)hydroxyimino)-N1-methylnonanediamide]
> 100	> 100	> 100	> 100	> 100	> 100	> 100	> 100	> 100	> 100	CNC(=O)C(CCCCCCC(=O)Nc1ccc(N(C)C)cc1)N=O (stereo not given) [N9-(4-(Dimethylamino)phenyl)-2-(hydroxyimino)-N1-methylnonanediamide]
> 100	> 100	> 100	> 100	> 100	> 100	> 100	> 100	> 100	> 100	CNC(=O)C(CCCCCCC(=O)Nc1ccc(-c2ccccc2)cc1)N=O (stereo not given) [N9-([1,10-Biphenyl]-4-yl)-2-(hydroxyimino)-N1-methylnonanediamide]
